Data on five molecules can be found in patent US5840692A, “Peptide fragments and analogs of thrombospondin” (Allegheny University of the Health Sciences, priority 1995, dated 1998).

“And” between values parts separate entries of the source, which are not always exact repeats. Equal entries are not always repeated. Residues, ends and D or L forms follow the SMILES beside them.

Experiment [1] relates to Mouse B16 F10 melanoma cells. Kind of experiment: Direct adhesion assay: melanoma cells adhering to ligand-coated wells. The following applies: for Adhesion as % Thrombospondin: absorbed compound 2 μg per well, B16 F10 melanoma cells, 1 hour at 37° C., cell protein by BCA, absorbance 562 nm; for adhesive properties (in words): melanoma cell adhesion to coated peptide. The class given is cell-based. The protocol: (§1) It is believed that thrombospondin acts in metastasis through its adhesive properties. An assay was developed, generally in accordance with the disclosure of Tuszynski et al. (Anal. Bio. (1990) 184:189-91) which evaluates the ability of melanoma cells to adhere to the thrombospondin fragments or analogs of the invention. In this assay, wells of a 96-well microtiter dish (Costar, Cambridge, Mass.) were incubated for two to three hours with 50 μl of a 40 μg/ml solution of various ligands in 20 mM NaCl, pH 7.3. Thrombospondin (purified by the method of Tuszynski et al., J. Biol. Chem. (1985) 260:12240-5), fibronectin (Sigma Chemical Co., Missouri) served as the positive control. Bovine serum albumin (BSA) (Sigma Chemical Co.) served as the negative control. Thrombospondin analogs of the invention p1, p5 and p6 were synthesized as described in Examples 1 through 3. Following peptide adhesion to the microtiter dish, the wells were aspirated, treated with 200 μl phosphate buffered saline (PBS) containing 1% BSA for 1 hour and then washed three more times with 200 μl PBS.
(§2) Mouse B16 F10 melanoma cells were grown and harvested during log phase of growth using standard procedures. The harvested cells were washed two times in serum-free Dulbecco's minimum essential medium (DMEM) (Flow Laboratories) and suspended in DMEM at a final concentration of 4×10^5 cells/ml. Of the cell suspension 100 μl was added to each well of the microtiter dish containing the various ligands and the dish incubated at 37° C. in a CO2 incubator for 1 hour. Nonadherent cells were removed by aspiration and the wells washed three times with 200 μl of PBS. The total cell-associated protein was determined by dissolving the attached cells directly in the microtiter wells with 200 μl of the Pierce BCA working solution (Pierce Chem. Co. Booklet No. 23225 (1987)). The plate was covered with an adhesive mylar sheet (Flow Labs) and incubated at 60° C. for 30 minutes. Plates were allowed to cool to room temperature, cover sheets were removed, and the absorbance of each well was determined at 562 nm with a microtiter plate reader (Biotek, Burlington, Vt.)

The subject of a further experiment is platelets. Kind of experiment: Direct platelet adhesion assay. The class given is cell-based. To be noted: for Adherence as % Control: wells treated with 50 μl of 40 μg/ml peptide or protein, platelets incubated 30 minutes, BCA protein assay; for adherence to platelets (in words): at this concentration (40 μg/ml coating solution). The protocol: (§3) The number of adherent platelets was essentially determined as previously described (Tuszynski et al., Anal. Bio. supra). Briefly, 100 μl of 5×10^8 platelets/ml washed as previously described (Tuszynski, et al., Blood 72, 109-225, 1988) were added to microtiter plates, the wells of which were treated with 50 μl of a 40 μg/ml peptide or protein solution (Hepes buffered saline, pH 7.4). Solutions were dried at room temperature after incubation in a fume hood for two hours. Wells were blocked for one hour with 1% BSA. Platelets (100 μl) were incubated in the wells for 30 minutes and non-adherent platelets were removed by aspiration. Wells were washed 3× with 200 μl of Hepes buffered saline, pH 7.4. The number of adherent platelets was determined by measuring the platelet-derived protein using the BCA protein assay.

In experiment [2] the test system is platelets (adhesion to absorbed thrombospondin (TSP)). Kind of experiment: Competitive assay, platelet adhesion to absorbed thrombospondin (TSP). The class given is cell-based. To be noted: for % Buffer Control (platelet adhesion): absorbed protein TSP, platelets preincubated with 250 μg/ml compound. The protocol:
as §3
(§4) The direct adhesion assay of Example 7 was modified to measure the ability of the peptide compounds of the invention to compete with intact thrombospindin or fibronectin for adhesion of platelets.
(§5) In this assay, thrombospondin (TSP) or fibronectin (FN) was absorbed onto microtiter dish as described in Example 7. The assay was similar to Example 7 except that before platelets were added to the microtiter dishes they were preincubated with 250 μg/ml of various ligands.

For experiment [3], the system named is melanoma cells (adhesion to absorbed intact thrombospondin). Description: Competitive assay to measure thrombospondin specific adhesion to melanoma cells. The class given is cell-based, mouse. To be noted: for competition with thrombospondin for adhesion to melanoma cells (in words): at this concentration (100 μg/ml). The protocol:
as §1, §2
The direct adhesion assay of Example 5 was modified to measure the ability of the peptide compounds of the invention to compete with intact thrombospondin for adhesion to melanoma cells.
In this assay, intact thrombospondin is absorbed onto microtiter dishes as described in Example 5. […]

Experiment [4] deals with platelets (adhesion to absorbed fibronectin (FN)). Description: Competitive assay, platelet adhesion to absorbed fibronectin (FN). The class given is cell-based. The following applies: for % Buffer Control (platelet adhesion): absorbed protein FN, platelets preincubated with 250 μg/ml compound. The protocol:
as §3, §4, §5

Experiment [5] relates to platelets in platelet-rich-plasma (PRP). Kind of experiment: Platelet aggregation assay in platelet-rich plasma, ADP-initiated. The class given is cell-based. To be noted: 0.5 ml PRP, aggregation initiated with 1 μM ADP. The protocol:
Platelet aggregation was monitored on a single-channel aggregometer equipped to measure luminescence (Chromo-Log, Havertown, Pa.). Platelet-rich-plasma (PRP) was obtained from whole blood anti-coagulated with 0.38% Sodium Citrate by centrifugation at 150×g for 20 minutes. Peptides were added to 0.5 ml of PRP and aggregation initiated with 1 μM ADP. Buffer blanks contained diluent (water) but no peptide.

Experiment [6] deals with B16 F10 mouse melanoma cells. Description: Antimetastatic activity in vivo, lung tumors after i.v. melanoma cells. On the set-up: species or system C57 black mice. To be noted: for % buffer control (number of lung tumors): i.v. with 5×10^5 B16 F10 cells, lung tumors counted after 16 days; for number of tumors versus controls (in words) / size of lung tumors (in words): treated C57 black mice, 16 days. From the text:
Briefly, C57 black mice were intravenously injected with 5×10^5 B16 F10 mouse melanoma cells in the presence of either control buffer (Hepes buffered saline, pH 7.4), or the indicated amount of peptide compound of the invention p1, p5 or p6. After 16 days, the mice were sacrificed and the number of lung tumors counted.

Where [7] appears, read: cells preincubated 15 minutes with 100 μg/ml compound.
Setting [8] is: cells preincubated with 200 μg/ml compound.
Setting [9] is: cells preincubated with 300 μg/ml compound.
[10] abbreviates: cells preincubated with 10 μg/ml compound.
[11] abbreviates: cells preincubated with 50 μg/ml compound.

As for “Thrombospondin: large molecular weight 180 kD glycoprotein of three identical disulfide-linked polypeptide chains; purified intact protein, positive control”, in experiment [1], the “Adhesion as % Thrombospondin” value is given as 100%. The “Adherence as % Control” value with platelets was found to be 100%.
For WSPCSVTCGNH2 [Compound p6], the “% Buffer Control (platelet adhesion)” value in experiment [2] worked out at 98%; in experiment [4], 96%. In addition, the “competition with thrombospondin for adhesion to melanoma cells (in words)” value (“competition … to melanoma cells (in words)” for short) in experiment [3] is “compete to a lesser degree”. Further, the “% of buffer control (melanoma cell adhesion to thrombospondin)” value (“% of buffer control” for short) in experiment [3] (setting [7]) was found to be 89%; in experiment [3] (setting [8]) it was 74%; in experiment [3] (setting [9]) it was 74%. In addition, in experiment [5], the “inhibition of platelet aggregation (in words, FIG. 1)” value (from here on “inhibition of platelet aggregation”) is “inhibit platelet aggregation”. Besides, the “% buffer control (number of lung tumors)” value in experiment [6] (30 μg/mouse) came out at 91%; in experiment [6] (100 μg/mouse) it was 102%; in experiment [6] (300 μg/mouse) it was 50%. Besides, the “number of tumors versus controls (in words)” value in experiment [6] is recorded as “statistically fewer tumors than controls”. For the same molecule, the “size of lung tumors (in words)” value in experiment [6] is recorded as “smaller in size”. The “Adhesion as % Thrombospondin” value in experiment [1] turned out to be 70%. Moreover, the “adhesive properties (in words)” value in experiment [1] is recorded as “display adhesive properties”. Besides, in the experiment with platelets, the “adherence to platelets (in words)” value is “adhere to platelets”. For the same molecule, in the experiment on platelets, the “Adherence as % Control” value came to 38%.
With fWSPCSVTCGNH2 [Compound p5], the figures for the “% Buffer Control (platelet adhesion)” value in experiment [2] and in experiment [4] were 107% and 109%, respectively. Besides, the “competition … to melanoma cells (in words)” value in experiment [3] is recorded as “compete to a lesser degree”. The “% of buffer control” value in experiment [3] (setting [7]) was 62% and 108% and 83%; in experiment [3] (setting [10]) it was 99%; in experiment [3] (setting [11]) it was 104%; in experiment [3] (setting [8]) it was 89%; in experiment [3] (setting [9]), 83%. The “inhibition of platelet aggregation” value in experiment [5] was “inhibit platelet aggregation”. Moreover, the “% buffer control (number of lung tumors)” value in experiment [6] (30 μg/mouse) stood at 87%. Further, in experiment [6], the “number of tumors versus controls (in words)” value is “statistically fewer tumors than controls”. For the same molecule, the “Adhesion as % Thrombospondin” value in experiment [1] is given as 79%. In experiment [1], the “adhesive properties (in words)” value is “display adhesive properties”. Further, the “Adherence as % Control” value in the experiment with platelets stood at 2.1%.
On to `CC(C)[C@H](NC(=O)[C@H](CO)NC(=O)[C@H](CS)NC(=O)[C@@H]1CCCN1C(=O)[C@H](CO)NC(=O)[C@@H](N)Cc1c[nH]c2ccccc12)C(=O)N[C@H](C(=O)N[C@@H](CS)C(=O)NCC(=O)O)[C@@H](C)O` [Compound p1, WSPCSVTCG] (H-WSPCSVTCG-OH), for which the “competition with thrombospondin for platelet adhesion (in words)” value in experiment [2] (250 μg/ml) is recorded as “effectively competed with thrombospondin”. Further, the entries for the “% Buffer Control (platelet adhesion)” value in experiment [2] and in experiment [4] were 71% and 108%, respectively. For the same molecule, the “competition … to melanoma cells (in words)” value in experiment [3] is on record as “able to effectively compete with thrombospondin”. Moreover, the “% of buffer control” value came out at 49% in experiment [3] (setting [10]) and 40% in experiment [3] (setting [11]). In addition, the “competition with fibronectin for platelet adhesion (in words)” value in experiment [4] (250 μg/ml) is “did not compete with fibronectin”. Also, the “inhibition of platelet aggregation” value in experiment [5] is on record as “inhibit platelet aggregation”. In experiment [6] (30 μg/mouse), the “% buffer control (number of lung tumors)” value stood at 49%. For the same molecule, the “number of tumors versus controls (in words)” value in experiment [6] is given as “statistically fewer tumors than controls”. Also, the “size of lung tumors (in words)” value in experiment [6] is “smaller in size”. In addition, the “Adhesion as % Thrombospondin” value in experiment [1] turned out to be 98%. The “adhesive properties (in words)” value in experiment [1] is recorded as “display adhesive properties”. Besides, the “adherence to platelets (in words)” value with platelets was “adhere to platelets”.
As to fibronectin, the “Adherence as % Control” value with platelets came to 83%.
